Results published in patent publication US9388141B2, “Acylaminocycloalkyl compounds suitable for treating disorders that respond to modulation of dopamine D3 receptor” (AbbVie Deutschland GmbH & Co. KG, priority 2013, dated 2016).

Tests used:
[1] = target: T1, human dopamine D3 receptors (Homo sapiens, UniProt P35462); test: Dopamine D3 receptor binding, [125I]-iodosulpride displacement; conditions: membranes of HEK-293 cells with human D3 receptors, 0.1 nM [125I]-iodosulpride
T1 construct: expressed in transfected cells; host or cells: HEK-293
Description: (§1) The substance to be tested was either dissolved in methanol/Chremophor® (BASF SE) or in dimethyl sulfoxide and then diluted with water to the desired concentration.
(§2) Each assay mixture was run in triplicate. • The incubation buffer contained 50 mM tris, 120 mM NaCl, 5 mM KCl, 2 mM CaCl2, 2 mM MgCl2 and 0.1% bovine serum albumin, 10 μM quinolone and 0.1% ascorbic acid (prepared fresh daily). […] Each assay mixture was run in triplicate. • The incubation buffer contained 50 mM tris, 120 mM NaCl, 5 mM KCl, 2 mM CaCl2, 2 mM MgCl2 and 0.1% bovine serum albumin. The buffer was adjusted to pH 7.4 with HCl. c) Measurement and Analysis: • After having been incubated at 25° C. for 60 minutes, the assay mixtures were filtered through a Whatman GF/B glass fiber filter under vacuum using a cell collecting device. The filters were transferred to scintillation viols using a filter transfer system. After 4 ml of Ultima Gold® (Packard) have been added, the samples were shaken for one hour and the radioactivity was then counted in a Beta-Counter (Packard, Tricarb 2000 or 2200CA).

[2] = Determination of the microsomal half-life / microsomal clearance; assay type: in vitro ADME; conditions: human liver microsomes, 0.5 μM test substance, 0.25 mg microsomal protein/ml, pH 7.4, 37° C.
Description: The metabolic stability of the compounds of the invention was determined in the following assay.
The test substances were incubated in a concentration of 0.5 μM as follows:
0.5 μM test substance are preincubated together with liver microsomes from different species (from rat, human or other species) (0.25 mg of microsomal protein/ml) in 0.05 M potassium phosphate buffer of pH 7.4 in microtiter plates at 37° C. for 5 min. The reaction is started by adding NADPH (1 mg/mL). After 0, 5, 10, 15, 20 and 30 min, 50 μl aliquots are removed, and the reaction is immediately stopped and cooled with the same volume of acetonitrile. The samples are frozen until analyzed. The remaining concentration of undegraded test substance is determined by MSMS. The half-life (T1/2) is determined from the gradient of the signal of test substance/unit time plot, it being possible to calculate the half-life of the test substance, assuming first order kinetics, from the decrease in the concentration of the compound with time. The microsomal clearance (mCl) is calculated from mCl=1n2/T1/2/(content of microsomal protein in mg/ml)×1000 [[…]] (modified from references: Di, The Society for Biomoleculur Screening, 2003, 453-462; Obach, DMD, 1999 vol 27. N 11, 1350-1359).

[3] = target: T2, human dopamine D2L receptors (long isoform) (Homo sapiens, UniProt P14416); test: Dopamine D2L receptor binding, [125I]-iodospiperone displacement; conditions: selectivity ratio Ki (D2L)/Ki (D3)
T2 construct: expressed in transfected cells; host or cells: HEK-293
Description: as §1, §2

T1 sequence (P35462 whole entry): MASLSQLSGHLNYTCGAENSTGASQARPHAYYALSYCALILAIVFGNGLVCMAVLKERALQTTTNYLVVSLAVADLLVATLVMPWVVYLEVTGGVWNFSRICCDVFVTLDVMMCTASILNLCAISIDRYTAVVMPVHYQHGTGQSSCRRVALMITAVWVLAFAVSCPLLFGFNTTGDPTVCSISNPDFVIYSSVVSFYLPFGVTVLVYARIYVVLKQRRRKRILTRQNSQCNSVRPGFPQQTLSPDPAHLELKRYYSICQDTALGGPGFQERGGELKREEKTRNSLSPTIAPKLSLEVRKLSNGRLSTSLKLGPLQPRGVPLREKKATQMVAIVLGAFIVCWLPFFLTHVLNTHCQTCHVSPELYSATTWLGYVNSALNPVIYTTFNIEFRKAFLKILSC
T2 sequence (P14416 whole entry, canonical isoform): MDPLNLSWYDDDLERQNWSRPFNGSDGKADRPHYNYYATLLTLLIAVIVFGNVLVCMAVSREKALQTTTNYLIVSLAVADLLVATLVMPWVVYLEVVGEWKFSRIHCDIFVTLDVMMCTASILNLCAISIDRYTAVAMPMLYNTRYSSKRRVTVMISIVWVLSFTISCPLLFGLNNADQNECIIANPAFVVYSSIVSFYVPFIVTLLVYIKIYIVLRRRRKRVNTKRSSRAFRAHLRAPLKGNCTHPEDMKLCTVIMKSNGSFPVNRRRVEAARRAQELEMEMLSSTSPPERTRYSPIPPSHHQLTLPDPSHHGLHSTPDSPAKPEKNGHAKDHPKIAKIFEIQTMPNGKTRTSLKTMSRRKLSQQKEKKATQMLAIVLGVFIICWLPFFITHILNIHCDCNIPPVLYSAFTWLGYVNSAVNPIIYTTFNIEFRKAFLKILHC

Structure (SMILES)	Ki [1] [nM]	Human mCl [2]	D2/D3, Ki (D2L)/Ki (D3) [3]
CC(C)(C)c1cc(N2CCN(CC[C@H]3CC[C@@H](NC(=O)[C@H]4CC[C@H](O)CC4)CC3)CC2)nc(C(C)(C)C)n1 [Compound 22, trans-N-[cis-4-[2-[4-(2,6-ditert-butylpyrimidin-4-yl)piperazin-1-yl]ethyl]cyclohexyl]-4-hydroxy-cyclohexanecarboxamide]	< 50	+ (+: 20-120 μl min^−1 mg^−1)	+++ (+++>50)
COCCc1cc(N2CCN(CC[C@H]3CC[C@H](NC(=O)[C@H]4CC[C@H](OC)CC4)CC3)CC2)nc(C(C)(C)C)n1 [Compound 24, trans-N-[trans-4-[2-[4-[2-tert-butyl-6-(2-methoxyethyl)pyrimidin-4-yl]piperazin-1-yl]ethyl]cyclohexyl]-4-methoxy-cyclohexanecarboxamide]	< 50	∘ (∘: >120 μl min^−1 mg^−1)	++ (++>20)
CC(C)(C)c1nc(N2CCN(CCC3CCC(NC(=O)C4CCC(O)CC4)CC3)CC2)cc(C2(C)CC2)n1 (stereo not drawn) [Compound 27, N-[4-[2-[4-[2-tert-butyl-6-(1-methylcyclopropyl)pyrimidin-4-yl]piperazin-1-yl]ethyl]cyclohexyl]-4-hydroxy-cyclohexanecarboxamide]	< 10	+ (+: 20-120 μl min^−1 mg^−1)	++ (++>20)
CC(C)(C)c1nc(N2CCN(CC[C@H]3CC[C@@H](NC(=O)[C@H]4CC[C@H](O)CC4)CC3)CC2)cc(C2(C)CC2)n1 [Compound 28, Trans-N-[cis-4-[2-[4-[2-tert-butyl-6-(1-methylcyclopropyl)pyrimidin-4-yl]piperazin-1-yl]ethyl]cyclohexyl]-4-hydroxy-cyclohexanecarboxamide]	< 10	+ (+: 20-120 μl min^−1 mg^−1)	++ (++>20)
COCCc1cc(N2CCN(CCC3CCC(NC(=O)C4CCC(O)CC4)CC3)C[C@H]2C)nc(C(C)(C)C)n1 (stereo partly drawn) [Compound 33, N-[4-[2-[(3R)-4-[2-tert-butyl-6-(2-methoxyethyl)pyrimidin-4-yl]-3-methyl-piperazin-1-yl]ethyl]cyclohexyl]-4-hydroxy-cyclohexanecarboxamide]	< 50	+ (+: 20-120 μl min^−1 mg^−1)	+++ (+++>50)
COCCc1cc(N2CCN(CC[C@H]3CC[C@H](NC(=O)[C@H]4CC[C@H](O)CC4)CC3)C[C@H]2C)nc(C(C)(C)C)n1 [Compound 34, trans-N-[trans-4-[2-[(3R)-4-[2-tert-butyl-6-(2-methoxyethyl)pyrimidin-4-yl]-3-methyl-piperazin-1-yl]ethyl]cyclohexyl]-4-hydroxy-cyclohexanecarboxamide]	< 10	+ (+: 20-120 μl min^−1 mg^−1)	+++ (+++>50)
CC(C)(C)c1nc(C2CCCC2)cc(N2CCN(CC[C@H]3CC[C@H](NC(=O)[C@H]4CC[C@H](O)CC4)CC3)CC2)n1 [Compound 35, trans-N-[trans-4-[2-[4-(2-tert-butyl-6-cyclopentyl-pyrimidin-4-yl)piperazin-1-yl]ethyl]cyclohexyl]-4-hydroxy-cyclohexanecarboxamide]	< 10	+ (+: 20-120 μl min^−1 mg^−1)	+ (+>10)
CC(C)(C)c1nc(C2CCCC2)cc(N2CCN(CC[C@H]3CC[C@@H](NC(=O)[C@H]4CC[C@H](O)CC4)CC3)CC2)n1 [Compound 36, trans-N-[cis-4-[2-[4-(2-tert-butyl-6-cyclopentyl-pyrimidin-4-yl)piperazin-1-yl]ethyl]cyclohexyl]-4-hydroxy-cyclohexanecarboxamide]	< 10	+ (+: 20-120 μl min^−1 mg^−1)	+++ (+++>50)
CC(C)(C)c1nc(C2CCC2)cc(N2CCN(CC[C@H]3CC[C@H](NC(=O)[C@H]4C[C@H](O)C4)CC3)CC2)n1.O=C(O)C(F)(F)F [Compound 38, trans-N-[trans-4-[2-[4-(2-tert-butyl-6-cyclobutyl-pyrimidin-4-yl)piperazin-1-yl]ethyl]cyclohexyl]-3-hydroxy-cyclobutanecarboxamide; 2,2,2-trifluoroacetic acid]	< 10	++ (++: <20 μl min^−1 mg^−1)	++ (++>20)
CC(C)(C)c1nc(C2CCC2)cc(N2CCN(CC[C@H]3C[C@H](NC(=O)[C@H]4C[C@H](O)C4)C3)CC2)n1.O=C(O)C(F)(F)F [Compound 39, trans-N-[trans-3-[2-[4-(2-tert-butyl-6-cyclobutyl-pyrimidin-4-yl)piperazin-1-yl]ethyl]cyclobutyl]-3-hydroxy-cyclobutanecarboxamide; 2,2,2-trifluoroacetic acid]	< 10	++ (++: <20 μl min^−1 mg^−1)	+++ (+++>50)

More lines, now with the values ahead:

Ki [1] [nM]	Human mCl [2]	D2/D3, Ki (D2L)/Ki (D3) [3]	Structure (SMILES)
< 50	+ (+: 20-120 μl min^−1 mg^−1)	+++ (+++>50)	CC(C)(C)c1nc(N2CCN(CC[C@H]3CC[C@@H](NC(=O)[C@H]4CC[C@H](O)CC4)CC3)CC2)cc(C(F)(F)F)n1 [Compound 23, Trans-N-[cis-4-[2-[4-[2-tert-butyl-6-(trifluoromethyl)pyrimidin-4-yl]piperazin-1-yl]ethyl]cyclohexyl]-4-hydroxy-cyclohexanecarboxamide]
< 10	+ (+: 20-120 μl min^−1 mg^−1)	+ (+>10)	CC(C)(C)c1nc(C(F)F)cc(N2CCN(CCC3CCC(NC(=O)C4CCC(O)CC4)CC3)CC2)n1 (stereo not drawn) [Compound 29, N-[4-[2-[4-[2-tert-butyl-6-(difluoromethyl)pyrimidin-4-yl]piperazin-1-yl]ethyl]cyclohexyl]-4-hydroxy-cyclohexanecarboxamide]
< 10	+ (+: 20-120 μl min^−1 mg^−1)	++ (++>20)	CC(C)(C)c1nc(C(F)F)cc(N2CCN(CC[C@H]3CC[C@@H](NC(=O)[C@H]4CC[C@H](O)CC4)CC3)CC2)n1 [Compound 30, Trans-N-[cis-4-[2-[4-[2-tert-butyl-6-(difluoromethyl)pyrimidin-4-yl]piperazin-1-yl]ethyl]cyclohexyl]-4-hydroxy-cyclohexanecarboxamide]
< 10	+ (+: 20-120 μl min^−1 mg^−1)	++ (++>20)	CC(C)c1cc(N2CCN(CCC3CCC(NC(=O)C4CCC(O)CC4)CC3)CC2)nc(C(C)(C)C)n1 (stereo not drawn) [Compound 31, N-[4-[2-[4-(2-tert-butyl-6-isopropyl-pyrimidin-4-yl)piperazin-1-yl]ethyl]cyclohexyl]-4-hydroxy-cyclohexanecarboxamide]
< 10	+ (+: 20-120 μl min^−1 mg^−1)	++ (++>20)	CC(C)c1cc(N2CCN(CC[C@H]3CC[C@H](NC(=O)[C@H]4CC[C@H](O)CC4)CC3)CC2)nc(C(C)(C)C)n1 [Compound 32, Trans-N-[trans-4-[2-[4-(2-tert-butyl-6-isopropyl-pyrimidin-4-yl)piperazin-1-yl]ethyl]cyclohexyl]-4-hydroxy-cyclohexanecarboxamide]
< 10	+ (+: 20-120 μl min^−1 mg^−1)	+++ (+++>50)	COCc1cc(N2CCN(CC[C@H]3CC[C@H](NC(=O)[C@H]4CC[C@H](O)CC4)CC3)CC2)nc(C(C)(C)C)n1 [Compound 37, trans-N-[trans-4-[2-[4-[2-tert-butyl-6-(methoxymethyl)pyrimidin-4-yl]piperazin-1-yl]ethyl]cyclohexyl]-4-hydroxy-cyclohexanecarboxamide]
